Source: US20240325493A1, “REGULATOR OF TUMOR CELL FUNCTIONS AND USES THEREOF” (Washington University, priority 2023, published 2024)

Experiments:
[1] = tested on: Zbtb46 in MCEC (mouse cardiac endothelial cells); assay: Zbtb46 mRNA expression in MCEC cells treated with tumor-derived factors; format: cell-based; conditions: in vitro, 24 hours
Experimental: FIG. 13A is a set of graphs of Zbtb46 mRNA expression in MCEC cells, with loading control b-Actin (left) and Gapdh (right), treated with PBS or tumor-conditioned media (TCM) for 24 hours. n≥3/group. One-way ANOVA with Dunnett's test.
(§1) Quantitative real-time reverse transcription PCR (qRT-PCR) was performed. cDNA was prepared with qScript™ CDNA SuperMix (Cat: 101414-106, VWR) according to the manufacturer's protocol. Gene expression was measured by quantitative real-time RT-PCR using primers.

[2] = tested on: Zbtb46 in bone marrow-derived dendritic cells (BMDC); assay: Zbtb46 mRNA expression in bone marrow-derived dendritic cells treated with tumor-derived factors; format: cell-based, mouse; conditions: in vitro, 24 hours, vs PBS
Experimental: FIG. 13B is a graph of Zbtb46 mRNA expression in bone marrow-derived dendritic cells (BMDC) treated with PBS, prostaglandin E2 (PGE2), vascular endothelial growth factor (VEGF), or retinoic acid (RA) for 24 hours. n≥3/group. One-way ANOVA with Dunnett's test.
as §1

CCCCC[C@H](O)/C=C/[C@H]1[C@H](O)CC(=O)[C@@H]1C/C=C\CCCC(=O)O [PGE2, prostaglandin E2]
Zbtb46 expression in EC [1]: downregulated
Zbtb46 expression in DC [2]: downregulated

VEGF
Zbtb46 expression in EC [1]: downregulated
Zbtb46 expression in DC [2]: downregulated
